From US20060069132A1, “Azolecarboxamide herbicides” (priority 2004, published 2006)
Like-named read-outs stand apart in the source and are kept apart here.

Assays:
[1] = system: wheat; test: Test B postemergence herbicide test; assay type: in vivo, Triticum aestivum; conditions: Triticum aestivum, post-emergence, 336 h, postemergence, visual rating, scale 0 (no effect) to 100 (complete control), read-out: Wheat plant response rating
Procedure, shortened: (§1)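 Treated at 2-leaf (paddy) or 1–4-leaf, 2–18 cm (postemergence); greenhouse 13–15 d; visual score vs control, 0 none to 100 complete control; dash = not tested.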

[2] = system: lambsquarters; test: Test B pre-/postemergence herbicide test; assay type: in vivo, Chenopodium album; conditions: Chenopodium album, 336 h; for pest or weed control at 125 g/ha: 125 g ai/ha; for pest or weed control at 500 g/ha: 500 g ai/ha
Procedure, shortened: (§2)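 Test chemicals in a non-phytotoxic solvent mixture with surfactant were applied preemergence to seeded species and postemergence to plants 2-18 cm tall (1- to 4-leaf stage); rice and barnyardgrass were also tested in a flooded paddy at the 2-leaf stage. Visual rating versus controls after 13-15 days in greenhouse, scale 0 (no effect) to 100 (complete control).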

[3] = system: morningglory; test: Test B pre-/postemergence herbicide test; assay type: in vivo, Ipomoea coccinea; conditions: Ipomoea, 336 h, visual rating; for pest or weed control at 500 g/ha: 500 g ai/ha
Procedure, shortened: (§3)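 Herbicidal effect was judged by eye on a 0–100 scale after plants stood 13 to 15 days in the greenhouse following pre- or postemergence treatment with surfactant-containing formulations.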

[4] = system: ducksalad; test: Test B flooded paddy test; assay type: in vivo, Heteranthera limosa; conditions: Heteranthera limosa, 336 h, 1000 g ai/ha, visual rating, scale 0 to 100 (0 no effect, 100 complete control), 13 to 15 days, read-out: Ducksalad plant response rating
Procedure, shortened: as §1

[5] = system: small flower umbrella sedge; test: Test B flooded paddy test; assay type: in vivo, Cyperus difformis; conditions: Cyperus difformis, 336 h, 1000 g ai/ha, visual rating, scale 0 to 100 (0 no effect, 100 complete control), 13 to 15 days, read-out: Sedge, Umbrella plant response rating
Procedure, shortened: as §1

[6] = system: giant foxtail; test: Test B pre-/postemergence herbicide test; assay type: in vivo, Setaria faberi; conditions: Setaria faberi, 336 h; for pest or weed control at 125 g/ha: 125 g ai/ha; for pest or weed control at 500 g/ha: 500 g ai/ha
Procedure, shortened: as §2

[7] = system: blackgrass; test: Test B postemergence herbicide test; assay type: in vivo, Alopecurus myosuroides; conditions: Alopecurus myosuroides, post-emergence, 336 h, postemergence, visual rating, scale 0 (no effect) to 100 (complete control), read-out: Blackgrass plant response rating
Procedure, shortened: as §1

[8] = system: cocklebur; test: Test B pre-/postemergence herbicide test; assay type: in vivo, Xanthium strumarium; conditions: Xanthium strumarium; for pest or weed control at 125 g/ha: 125 g ai/ha; for pest or weed control at 500 g/ha: 500 g ai/ha
Procedure, shortened: as §3

[9] = system: wild oat; test: Test B postemergence herbicide test; assay type: in vivo, Avena fatua; conditions: Avena fatua, post-emergence, 336 h, postemergence, visual rating, scale 0 (no effect) to 100 (complete control), read-out: Oat, Wild plant response rating
Procedure, shortened: as §1

[10] = system: velvetleaf; test: Test B pre-/postemergence herbicide test; assay type: in vivo, Abutilon theophrasti; conditions: Abutilon theophrasti, 336 h; for pest or weed control at 125 g/ha: 125 g ai/ha; for pest or weed control at 500 g/ha: 500 g ai/ha
Procedure, shortened: as §2

[11] = system: rice; test: Test B flooded paddy test; assay type: in vivo, Oryza sativa; conditions: Oryza sativa, 336 h, 1000 g ai/ha, visual rating, scale 0 to 100 (0 no effect, 100 complete control), 13 to 15 days, read-out: Rice plant response rating
Procedure, shortened: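 Paddy species grown to the 2-leaf stage under flooding; blackgrass sprayed postemergence at 2–18 cm (1- to 4-leaf stage). Plants kept in a greenhouse for 13 to 15 days, then visually rated against controls on 0 (no effect) to 100 (complete control).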

[12] = system: barnyardgrass; test: Test B flooded paddy test; assay type: in vivo, Echinochloa crus-galli; conditions: Echinochloa crus-galli, 336 h, 1000 g ai/ha, visual rating, scale 0 to 100 (0 no effect, 100 complete control), 13 to 15 days, read-out: Barnyardgrass plant response rating
Procedure, shortened: as §1

[13] = system: corn; test: Test B pre-/postemergence herbicide test; assay type: in vivo, Zea mays; conditions: Zea mays; for plant injury at 125 g/ha: 125 g ai/ha
Procedure, shortened: as §2

[14] = system: pigweed; test: Test B pre-/postemergence herbicide test; assay type: in vivo, Amaranthus retroflexus; conditions: Amaranthus retroflexus, 336 h; for pest or weed control at 125 g/ha: 125 g ai/ha; for pest or weed control at 500 g/ha: 500 g ai/ha
Procedure, shortened: as §2

[15] = system: Surinam grass; test: Test B pre-/postemergence herbicide test; assay type: in vivo, Urochloa decumbens; conditions: Urochloa decumbens; for pest or weed control at 125 g/ha: 125 g ai/ha; for pest or weed control at 500 g/ha: 500 g ai/ha
Procedure, shortened: as §2

[16] = post-emergence, postemergence, visual rating, scale 0 (no effect) to 100 (complete control), read-out: Lambsquarters plant response rating
[17] = post-emergence, postemergence, visual rating, scale 0 (no effect) to 100 (complete control), read-out: Foxtail, Giant plant response rating
[18] = post-emergence, postemergence, visual rating, scale 0 (no effect) to 100 (complete control), read-out: Cocklebur plant response rating
[19] = post-emergence, postemergence, visual rating, scale 0 (no effect) to 100 (complete control), read-out: Velvetleaf plant response rating
[20] = post-emergence, postemergence, visual rating, scale 0 (no effect) to 100 (complete control), read-out: Pigweed plant response rating
[21] = post-emergence, postemergence, visual rating, scale 0 (no effect) to 100 (complete control), read-out: Surinam Grass plant response rating

How did the plant injury at 125 g/ha ([1]; 125 g ai/ha) turn out when `CCc1nn(C(C)(C)C)cc1C(=O)Nc1cc(C(=O)N(C)C)ccc1F` [Compound 222, N-[5-[(dimethylamino)carbonyl]-2-fluorophenyl]-1-(1,1-dimethylethyl)-3-ethyl-1H-pyrazole-4-carboxamide] was run?
The plant injury at 125 g/ha was 0%.

What about the plant injury at 500 g/ha ([1]; 500 g ai/ha) of the same compound?
The plant injury at 500 g/ha was 20%.

And the pest or weed control at 125 g/ha [2, 16]?
Its pest or weed control at 125 g/ha is 50%.

What about the pest or weed control at 500 g/ha [2, 16] of the same compound?
Its pest or weed control at 500 g/ha is 70%.

What about the pest or weed control at 125 g/ha ([2]; pre-emergence, 0 = no effect, 100 = complete control, read-out: Lambsquarters plant response rating (0 to 100 scale)) of the same compound?
Its pest or weed control at 125 g/ha is 100%.

What about the pest or weed control at 500 g/ha ([2]; pre-emergence, visual rating, 0 = no effect, 100 = complete control, read-out: Plant response rating, Lambsquarters) of the same compound?
The pest or weed control at 500 g/ha was 100%.

What about the pest or weed control at 125 g/ha ([3]; post-emergence, postemergence, 125 g ai/ha, scale 0 (no effect) to 100 (complete control), read-out: Morningglory plant response rating) of the same compound?
The pest or weed control at 125 g/ha was 40%.

What about the pest or weed control at 500 g/ha ([3]; post-emergence, postemergence, scale 0 (no effect) to 100 (complete control), read-out: Morningglory plant response rating) of the same compound?
The pest or weed control at 500 g/ha was 80%.

And the pest or weed control at 500 g/ha ([3]; pre-emergence, 0 = no effect, 100 = complete control, read-out: Plant response rating, Morningglory)?
The pest or weed control at 500 g/ha was 100%.

And the pest or weed control at 1000 g/ha [4]?
Its pest or weed control at 1000 g/ha is 80%.

And the pest or weed control at 1000 g/ha [5]?
Its pest or weed control at 1000 g/ha is 70%.

And the pest or weed control at 125 g/ha [6, 17]?
Its pest or weed control at 125 g/ha is 10%.

What about the pest or weed control at 500 g/ha [6, 17] of the same compound?
The pest or weed control at 500 g/ha was 30%.

And the pest or weed control at 125 g/ha ([6]; pre-emergence, 0 = no effect, 100 = complete control, read-out: Foxtail, Giant plant response rating (0 to 100 scale))?
The pest or weed control at 125 g/ha was 60%.

What about the pest or weed control at 500 g/ha ([6]; pre-emergence, visual rating, 0 = no effect, 100 = complete control, read-out: Plant response rating, Foxtail, Giant) of the same compound?
The pest or weed control at 500 g/ha was 90%.

And the pest or weed control at 125 g/ha ([7]; 125 g ai/ha)?
The pest or weed control at 125 g/ha was 0%.

What about the pest or weed control at 500 g/ha ([7]; 500 g ai/ha) of the same compound?
The pest or weed control at 500 g/ha was 20%.

And the pest or weed control at 125 g/ha [8, 18]?
Its pest or weed control at 125 g/ha is 20%.

What about the pest or weed control at 500 g/ha [8, 18] of the same compound?
Its pest or weed control at 500 g/ha is 60%.

What about the pest or weed control at 125 g/ha ([8]; pre-emergence, 0 = no effect, 100 = complete control, read-out: Cocklebur plant response rating (0 to 100 scale)) of the same compound?
The pest or weed control at 125 g/ha was 30%.

And the pest or weed control at 500 g/ha ([8]; pre-emergence, visual rating, 0 = no effect, 100 = complete control, read-out: Plant response rating, Cocklebur)?
Its pest or weed control at 500 g/ha is 80%.

What about the pest or weed control at 125 g/ha ([9]; 125 g ai/ha) of the same compound?
Its pest or weed control at 125 g/ha is 0%.

And the pest or weed control at 500 g/ha ([9]; 500 g ai/ha)?
The pest or weed control at 500 g/ha was 20%.

And the pest or weed control at 125 g/ha [10, 19]?
Its pest or weed control at 125 g/ha is 50%.

And the pest or weed control at 500 g/ha [10, 19]?
Its pest or weed control at 500 g/ha is 60%.

What about the pest or weed control at 125 g/ha ([10]; pre-emergence, 0 = no effect, 100 = complete control, read-out: Velvetleaf plant response rating (0 to 100 scale)) of the same compound?
The pest or weed control at 125 g/ha was 100%.

And the pest or weed control at 500 g/ha ([10]; pre-emergence, visual rating, 0 = no effect, 100 = complete control, read-out: Plant response rating, Velvetleaf)?
Its pest or weed control at 500 g/ha is 100%.

And the plant injury at 1000 g/ha [11]?
Its plant injury at 1000 g/ha is 90%.

And the pest or weed control at 1000 g/ha [12]?
The pest or weed control at 1000 g/ha was 90%.

What about the plant injury at 125 g/ha ([13]; post-emergence, postemergence, visual rating, scale 0 (no effect) to 100 (complete control), read-out: Corn plant response rating) of the same compound?
Its plant injury at 125 g/ha is 0%.

What about the plant injury at 500 g/ha ([13]; post-emergence, postemergence, 500 g ai/ha, visual rating, scale 0 (no effect) to 100 (complete control), read-out: Corn plant response rating) of the same compound?
Its plant injury at 500 g/ha is 20%.

And the plant injury at 125 g/ha ([13]; pre-emergence, 0 = no effect, 100 = complete control, read-out: Corn plant response rating (0 to 100 scale))?
Its plant injury at 125 g/ha is 60%.

What about the Corn plant response rating (crop injury, 0 = no effect, 100 = complete kill) at 500 g/ha ([13]; pre-emergence, 500 g ai/ha, visual rating, 0 = no effect, 100 = complete control) of the same compound?
Its Corn plant response rating (crop injury, 0 = no effect, 100 = complete kill) at 500 g/ha is 90%.

What about the pest or weed control at 125 g/ha [14, 20] of the same compound?
Its pest or weed control at 125 g/ha is 40%.

And the pest or weed control at 500 g/ha [14, 20]?
Its pest or weed control at 500 g/ha is 60%.

What about the pest or weed control at 125 g/ha ([14]; pre-emergence, 0 = no effect, 100 = complete control, read-out: Pigweed plant response rating (0 to 100 scale)) of the same compound?
The pest or weed control at 125 g/ha was 90%.

And the pest or weed control at 500 g/ha ([14]; pre-emergence, visual rating, 0 = no effect, 100 = complete control, read-out: Plant response rating, Pigweed)?
Its pest or weed control at 500 g/ha is 100%.

What about the pest or weed control at 125 g/ha [15, 21] of the same compound?
Its pest or weed control at 125 g/ha is 10%.

What about the pest or weed control at 500 g/ha [15, 21] of the same compound?
The pest or weed control at 500 g/ha was 30%.

And the pest or weed control at 125 g/ha ([15]; pre-emergence, 0 = no effect, 100 = complete control, read-out: Surinam Grass plant response rating (0 to 100 scale))?
The pest or weed control at 125 g/ha was 90%.

And the pest or weed control at 500 g/ha ([15]; pre-emergence, visual rating, 0 = no effect, 100 = complete control, read-out: Plant response rating, Surinam Grass)?
Its pest or weed control at 500 g/ha is 100%.
